The record followed here is patent publication US10638756B2, “Molecules having pesticidal utility, and intermediates, compositions, and processes, related thereto” (Dow AgroSciences LLC, priority 2017, dated 2020).

Holding throughout (type): in vivo
In series [1] the test system is Cabbage Looper (Trichoplusia ni). The experiment in a line: Bioassay on Cabbage Looper (CL), 128-well diet tray assay. The conditions noted are these: 168 h, 50 μg/cm^2 on artificial diet, second instar larvae, five to seven days, read-out: CL % Control (or Mortality) rating. The procedure, abridged: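 Diet tray, 2nd instar, 1–5 larvae/well; 50 μg/cm^2 compound surface-applied (acetone:water 90:10), dried; 8 wells/treatment; 25° C, 14:10 L:D, 5–7 d; % mortality, mean of 8 wells.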

Series [2] relates to Beet Armyworm (Spodoptera exigua). Nature of the series: Bioassay on Beet Armyworm (BAW), 128-well diet tray assay. The conditions noted are these: Spodoptera exigua, 168 h; 50 μg/cm^2 on artificial diet, second instar larvae, five to seven days; read-out: BAW % Control (or Mortality) rating.
Series [3] relates to Yellow Fever Mosquito (Aedes aegypti). The note with it: about 1 day-old larvae, 3 days, scored on mortality. The protocol:
Certain molecules disclosed in this document were tested against YFM using procedures described in the following paragraph. In the reporting of the results, the “GPA & YFM Rating Table” was used (See Table Section).
Master plates containing 400 μg of a molecule dissolved in 100 μL of dimethyl sulfoxide (DMSO) (equivalent to a 4000 ppm solution) are used. A master plate of assembled molecules contains 15 μL per well. To this plate, 135 μL of a 90:10 water/acetone mixture is added to each well. A robot (Biomek® NXP Laboratory Automation Workstation) is programmed to dispense 15 μL aspirations from the master plate into an empty 96-well shallow plate (“daughter” plate). There are 6 reps (“daughter” plates) created per master. The created “daughter” plates are then immediately infested with YFM larvae.
The day before plates are to be treated, mosquito eggs are placed in Millipore water containing liver powder to begin hatching (4 g. into 400 mL). After the “daughter” plates are created using the robot, they are infested with 220 μL of the liver powder/larval mosquito mixture (about 1 day-old larvae). After plates are infested with mosquito larvae, a non-evaporative lid is used to cover the plate to reduce drying. Plates are held at room temperature for 3 days prior to grading. After 3 days, each well is observed and scored based on mortality. The results are indicated in the table entitled “Table ABC: Biological Results” (See Table Section).

In general, mortality refers to the share of the test organisms that died. As to `COc1ccc(NNC(=O)c2ccc(/C(F)=C/C(c3cc(Cl)c(Cl)c(Cl)c3)C(F)(F)F)cc2C(F)(F)F)cc1` (stereo not drawn) [F126, (Z)—N′-(4-Methoxyphenyl)-4-(1,4,4,4-tetrafluoro-3-(3,4,5-trichlorophenyl)but-1-en-1-yl)-2-(trifluoromethyl)benzohydrazide], the mortality at 50 µg/cm2 in series [1] and in series [2] was 50 to 100% each time. The “YFM % Control (or Mortality) rating” value in series [3] was “A (80-100)”.
Turning to `O=C(NNc1ncccn1)c1ccc(/C(F)=C/C(c2cc(Cl)c(Cl)c(Cl)c2)C(F)(F)F)cc1Br` (stereo not drawn) [F128, (Z)-2-Bromo-N′-(pyrimidin-2-yl)-4-(1,4,4,4-tetrafluoro-3-(3,4,5-trichlorophenyl)but-1-en-1-yl)benzohydrazide], the mortality at 50 µg/cm2 in series [1] and in series [2] was 50 to 100% throughout. In series [3], the “YFM % Control (or Mortality) rating” value is given as “A (80-100)”.
In the case of `CCN(NC(=O)c1ccc(/C(F)=C/C(c2cc(Cl)c(Cl)c(Cl)c2)C(F)(F)F)cc1C(F)(F)F)c1ncccn1` (stereo not drawn) [F130, (Z)—N′-Ethyl-N′-(pyrimidin-2-yl)-4-(1,4,4,4-tetrafluoro-3-(3,4,5-trichlorophenyl)but-1-en-1-yl)-2-(trifluoromethyl)benzohydrazide], the mortality at 50 µg/cm2 in series [1] and in series [2] was 50 to 100% throughout. The “YFM % Control (or Mortality) rating” value in series [3] is “A (80-100)”.
On to `O=C(NNc1ccccc1)c1ccc(/C(F)=C/C(c2cc(Cl)c(Cl)c(Cl)c2)C(F)(F)F)cc1C(F)(F)F` (stereo not drawn) [F133, (Z)—N′-Phenyl-4-(1,4,4,4-tetrafluoro-3-(3,4,5-trichlorophenyl)but-1-en-1-yl)-2-(trifluoromethyl)benzohydrazide], for which the mortality at 50 µg/cm2 in series [1] and in series [2] was 50 to 100% each time. Further, in series [3], the “YFM % Control (or Mortality) rating” value was “A (80-100)”.
Consider `O=C(NNc1cc(F)ccc1F)c1ccc(/C(F)=C/C(c2cc(Cl)c(Cl)c(Cl)c2)C(F)(F)F)cc1C(F)(F)F` (stereo not drawn) [F134, (Z)—N′-(2,5-Difluorophenyl)-4-(1,4,4,4-tetrafluoro-3-(3,4,5-trichlorophenyl)but-1-en-1-yl)-2-(trifluoromethyl)benzohydrazide], for which the mortality at 50 µg/cm2 in series [1] and in series [2] was 50 to 100% throughout. The “YFM % Control (or Mortality) rating” value in series [3] is on record as “A (80-100)”.
Turning to `C#CCN(NC(=O)c1ccc(/C(F)=C/C(c2cc(Cl)c(Cl)c(Cl)c2)C(F)(F)F)cc1C)c1ncccn1` (stereo not drawn) [F148, (Z)-2-Methyl-N′-(prop-2-yn-1-yl)-N′-(pyrimidin-2-yl)-4-(1,4,4,4-tetrafluoro-3-(3,4,5-trichlorophenyl)but-1-en-1-yl)benzohydrazide], the mortality at 50 µg/cm2 in series [1] and in series [2] was 50 to 100% each time. For the same molecule, the “YFM % Control (or Mortality) rating” value in series [3] was “A (80-100)”.
As to `C=CCN(NC(=O)c1ccc(/C(F)=C/C(c2cc(Cl)c(Cl)c(Cl)c2)C(F)(F)F)cc1C(F)(F)F)c1ncccn1` (stereo not drawn) [F152, (Z)—N′-Allyl-N′-(pyrimidin-2-yl)-4-(1,4,4,4-tetrafluoro-3-(3,4,5-trichlorophenyl)but-1-en-1-yl)-2-(trifluoromethyl)benzohydrazide], the mortality at 50 µg/cm2 in series [1] and in series [2] was 50 to 100% each time. In series [3], the “YFM % Control (or Mortality) rating” value is recorded as “A (80-100)”.
On to `CN(NC(=O)c1ccc(/C(F)=C/C(c2cc(Cl)c(Cl)c(Cl)c2)C(F)(F)F)cc1C(F)(F)F)c1nccs1` (stereo not drawn) [F158, (Z)—N′-methyl-4-(1,4,4,4-tetrafluoro-3-(3,4,5-trichlorophenyl)but-1-en-1-yl)-N′-(thiazol-2-yl)-2-(trifluoromethyl)benzohydrazide], for which the mortality at 50 µg/cm2 in series [1] and in series [2] was 50 to 100% each time. The “YFM % Control (or Mortality) rating” value in series [3] was “A (80-100)”.
On to `O=C(NNc1ncccn1)c1ccc(/C(F)=C/C(c2cc(Cl)c(Br)c(Cl)c2)C(F)(F)F)cc1C(F)(F)F` (stereo not drawn) [F172, (Z)-4-(3-(4-Bromo-3,5-dichlorophenyl)-1,4,4,4-tetrafluorobut-1-en-1-yl)-N′-(pyrimidin-2-yl)-2-(trifluoromethyl)benzohydrazide], for which the mortality at 50 µg/cm2 in series [1] and in series [2] was 50 to 100% each time. The “YFM % Control (or Mortality) rating” value in series [3] is recorded as “A (80-100)”.
